From paper PMC7815808, “Enzyme and lateral flow monoclonal antibody-based immunoassays to simultaneously determine spirotetramat and spirotetramat-enol in foodstuffs” (Scientific Reports, 2021)

Key:
mAbs to SP and SP-enol = assay: Direct cELISA, binding of analytes and other pesticides by the generated mAbs; design: species or system mouse; settings: other pesticides, insecticides and fungicides
Description: Six mouse mAbs were obtained; three were from immunogen BSA‒SPm—named SPm#23, SPm#25, and SPm#216—and three from conjugate BSA‒SPo—named SPo#227, SPo#237, and SPo#243. These antibodies contained κ light chains and were of the IgG1 isotype, except mAb SPm#25 which was IgG2a. The affinity to SP and SP-enol was studied by checkerboard cELISA in the capture antibody-coated direct format, using homologous and heterologous enzyme tracers (with the same or different hapten, respectively, than the immunizing conjugate). SP and SP-enol standards were prepared in PBS (10 mM phosphate buffer, pH 7.4, with 140 mM NaCl) and tracer solutions for the competitive step were prepared in PBS-T (PBS containing 0.05% (v/v) Tween-20). […] Tracers with linker site heterologies were not bound by the antibodies. The only exception was mAb SPm#23 which did recognize the heterologous HRP‒SPh conjugate. For this antibody, the spacer arm of hapten SPh was located at a more proximal site than that of hapten […]. The lowest IC50 value with the homologous tracer was around 3 nM for SP-enol whereas binding to SP was moderate (IC50 values were higher than 30 nM).
(§1) Concerning specificity, the two assayed immunogens (BSA‒SPm and BSA‒SPo) afforded equivalent results. […] Cross-reactivity with the main SP metabolites was studied with antibody SPm#23.
(§2) Microplates were precoated with GAM in order to immobilise the mAb. The competitive step was carried out by mixing the analyte solution or diluted sample with the enzyme tracer solution. Standard curves were built in borosilicate glass tubes from 0.03 to 30 nM by a threefold serial dilution of the most concentrated standard solution, and a blank (no analyte) was also run. Concentrated stock solutions of the analytes in anhydrous DMF were used to prepare the most concentrated standard solution—the DMF concentration was always lower than 0.1% (v/v). The complete immunoassay procedure can be found in the Supplementary Information file.
(§3) Table S1. Specificity of the
(§4) 7. Direct competitive ELISA procedure
(§5) The same protocol previously described for this format was applied.7 Briefly, plates were coated with 100 µL per well of 1 µg/mL GAM solution in carbonate‒bicarbonate buffer, pH 9.6, by overnight incubation at 4 °C. Wells were washed four times with washing solution (150 mM NaCl with 0.05% (v/v) Tween-20) after each incubation step. Then, 100 µL per well of specific mAb solution in PBS-T was added and plates were incubated at room temperature during 1 h. The competitive reaction was carried out by adding 50 µL per well of analyte solution or diluted sample and 50 µL per well of tracer […]
(§6) enzyme substrate solution (2 mg/mL o-phenylendiamine and 0.012% (v/v) H2O2 in 25 mM sodium citrate and 62 mM sodium phosphate buffer, pH 5.4). Ten minutes later, the enzyme reaction was stopped by adding 100 µL per well of 1 M H2SO4.
8. Influence of pH and ionic strength […]
(§7) 7 E. Ceballos-Alcantarilla, D. López-Puertollano, C. Agulló, A. Abad-Fuentes, A. Abad-Somovilla, J. V. Mercader.
Combined heterologies for monoclonal antibody-based immunoanalysis of fluxapyroxad. Analyst 143, 5718‒

mAb SPm#23 = assay: Antibody specificity (cross-reactivity) of the selected mAb; assay type: binding, mouse; settings: for CR (%): cross-reactivity of the selected mAb, SP-enol = 100, n=3
Method: as §1, §2, §3, §4, §5, §6
8. Influence of pH and ionic strength
Figure S5. Influence of pH and ionic strength over the Amax and IC50 values of the spirotetramat-enol standard curve of the studied direct cELISA.
as §7
Combined heterologies for monoclonal antibody-based immunoanalysis of fluxapyroxad. Analyst 143, 5718‒ […]

[1] = Spirotetramat hydrolysis study by HPLC‒MS/MS; assay type: physicochemical; design: content found by HPLC–MS/MS, sample treatment A / content found by HPLC–MS/MS, sample treatment B / content found by HPLC–MS/MS, sample treatment C / content found by HPLC–MS/MS, sample treatment D: unit not given beside the values; settings: for content found by HPLC–MS/MS, sample treatment A: SP hydrolysed (40 mM NaOH, 10 min, room temperature); for content found by HPLC–MS/MS, sample treatment B: SP without hydrolysis; for content found by HPLC–MS/MS, sample treatment C: SP-enol hydrolysed (40 mM NaOH, 10 min, room temperature); for content found by HPLC–MS/MS, sample treatment D: SP-enol without hydrolysis
Method: In order to simultaneously quantify SP and SP-enol contents in a sample, an in situ procedure for treating the sample with alkaline solution in order to hydrolyse SP into SP-enol was assessed. SP and SP-enol standard solutions were prepared in MilliQ water and diluted fivefold with 40 mM NaOH. The mixtures were incubated 10 min at room temperature and diluted twofold with dilution buffer (200 mM Tris·HCl buffer, pH 8.0, containing 280 mM NaCl). For the competitive step, enzyme tracer solutions were prepared in TBS-T (100 mM Tris·HCl buffer, pH 8.0, containing 140 mM NaCl and 0.05% (v/v) Tween-20). As shown in the inset of Table 2, the obtained standard curves of SP-enol and hydrolysed SP were almost identical. This hydrolysis procedure was validated by HPLC‒MS/MS. SP and SP-enol aqueous solutions (50 µg/mL) were treated with NaOH and, 10 min later, the pH was lowered as previously described. Then, 10 µL of hydrolysed and diluted sample was transferred into 990 µL of acetonitrile and dried with anhydrous MgSO4. Controls without the hydrolysis step were also evaluated. Finally, the contents of SP, SP-enol, SP-keto, and SP-mono in the organic extracts were quantified (Table 2). […] Those samples were also analysed with the studied direct cELISA by running SP-enol standard solutions that had been incubated in NaOH and diluted with dilution buffer like the samples. […] Consequently, the developed hydrolysis procedure seemed to perform adequately for SP and SP-enol residue quantification as SP-enol equivalents.
SP, SP-enol, SP-keto, and SP-mono standard solutions were prepared by serial dilution in acetonitrile from 1 to 2500 μg/L in amber glass vials and kept at − 20 °C. The injection volume was 5 µL and the column temperature was 45 °C. The analysis was carried out using a C18 reverse phase column with a gradient of 0.2% (v/v) formic acid in water (A) and acetonitrile (B) as mobile phase at a flow rate of 0.3 mL/min. The elution profile was 0‒3 min, from 5% B to 95% B, 3.0‒3.5 min, 95% B, 3.5‒3.6 min, from 95% B to 5% B, and 3.6‒8 min, 5% B. Spectra were acquired in positive ionization multiple reaction monitoring mode with interchannel delay of 0.02 s.

SMILES: CCCOC(=O)NCCCN(C)C [propamocarb]
- binding by the antibodies (mAbs to SP and SP-enol): did not bind

SMILES: CSC1=N[C@@](C)(c2ccccc2)C(=O)N1Nc1ccccc1 [fenamidone]
- binding by the antibodies (mAbs to SP and SP-enol): did not bind

SMILES: CC(Cc1ccc(C(C)(C)C)cc1)CN1C[C@@H](C)O[C@@H](C)C1 (some centres unmarked) [fenpropimorph]
- binding by the antibodies (mAbs to SP and SP-enol): did not bind

SMILES: CNC(=O)/C(=N/OC)c1ccccc1COc1cc(C)ccc1C [dimoxystrobin]
- binding by the antibodies (mAbs to SP and SP-enol): did not bind

SMILES: CO/C=C(/C(=O)OC)c1ccccc1Oc1cc(Oc2ccccc2C#N)ncn1 [azoxystrobin]
- binding by the antibodies (mAbs to SP and SP-enol): did not bind

SMILES: COC1CCC2(CC1)NC(=O)C(c1cc(C)ccc1C)=C2O[C@@H]1O[C@H](CO)[C@@H](O)[C@H](O)[C@H]1O (some centres unmarked) [SP-glu, spirotetramat-enol-glucoside]
- CR (%) (mAb SPm#23): 5.11%
- affinity to SP-enol, times higher than to the analyte (mAb SPm#23; mAb SPm#23): ≥ 20 times

SMILES: Cc1cc(C)c(C2=C(OC(=O)CC(C)(C)C)C3(CCCC3)OC2=O)c(C)c1 [spiromesifen]
- binding by the antibodies (mAbs to SP and SP-enol): did not bind

SMILES: N#Cc1c[nH]cc1-c1cccc2c1OC(F)(F)O2 [fludioxonil]
- binding by the antibodies (mAbs to SP and SP-enol): did not bind

SMILES: c1ccc2[nH]c(-c3cscn3)nc2c1 [thiabendazole]
- binding by the antibodies (mAbs to SP and SP-enol): did not bind

SMILES: CCC(C)(C)C(=O)OC1=C(c2ccc(Cl)cc2Cl)C(=O)OC12CCCCC2 [spirodiclofen]
- binding by the antibodies (mAbs to SP and SP-enol): did not bind

SMILES: COC1CCC2(CC1)NC(=O)C(O)(c1cc(C)ccc1C)C2=O (centres unmarked) [SP-keto, spirotetramat-ketohydroxy]
- CR (%) (mAb SPm#23): 0.02%
- binding (mAb SPm#23; mAb SPm#23): almost negligible
- content found by HPLC–MS/MS, sample treatment A [1]: 0.09
- content found by HPLC–MS/MS, sample treatment B [1]: 0.08
- content found by HPLC–MS/MS, sample treatment C [1]: 0.39
- content found by HPLC–MS/MS, sample treatment D [1]: 0.43

SMILES: COC(=O)N(OC)c1ccccc1COc1ccn(-c2ccc(Cl)cc2)n1 [pyraclostrobin]
- binding by the antibodies (mAbs to SP and SP-enol): did not bind

SMILES: O=C(Nc1ccccc1-c1ccc(Cl)cc1)c1cccnc1Cl [boscalid]
- binding by the antibodies (mAbs to SP and SP-enol): did not bind

SMILES: N#Cc1c(Cl)c(Cl)c(Cl)c(C#N)c1Cl [chlorothalonil]
- binding by the antibodies (mAbs to SP and SP-enol): did not bind

SMILES: Oc1ccccc1-c1ccccc1 [o-phenylphenol]
- binding by the antibodies (mAbs to SP and SP-enol): did not bind

SMILES: Cc1cc(C2CC2)nc(Nc2ccccc2)n1 [cyprodinil]
- binding by the antibodies (mAbs to SP and SP-enol): did not bind

SMILES: CC1(C(=O)Nc2ccc(O)c(Cl)c2Cl)CCCCC1 [fenhexamid]
- binding by the antibodies (mAbs to SP and SP-enol): did not bind

SMILES: COC1CCC2(CC1)NC(=O)C(c1cc(C)ccc1C)C2O (centres unmarked) [SP-mono, spirotetramat-monohydroxy]
- CR (%) (mAb SPm#23): 0.19%
- binding (mAb SPm#23; mAb SPm#23): almost negligible
- content found by HPLC–MS/MS, sample treatment A [1]: 0.01
- content found by HPLC–MS/MS, sample treatment B [1]: 0.12
- content found by HPLC–MS/MS, sample treatment C [1]: 0.02
- content found by HPLC–MS/MS, sample treatment D [1]: 0.02

SMILES: C#CCOc1ccc(CCNC(=O)C(OCC#C)c2ccc(Cl)cc2)cc1OC (centres unmarked) [mandipropamid]
- binding by the antibodies (mAbs to SP and SP-enol): did not bind

SMILES: CC12CC1(C)C(=O)N(c1cc(Cl)cc(Cl)c1)C2=O (centres unmarked) [procymidone]
- binding by the antibodies (mAbs to SP and SP-enol): did not bind

SMILES: CC1(C)[C@H](C(=O)O[C@H](C#N)c2cccc(Oc3ccccc3)c2)[C@@H]1C=C(Br)Br [deltamethrin]
- binding by the antibodies (mAbs to SP and SP-enol): did not bind

SMILES: Cc1cc(C)nc(Nc2ccccc2)n1 [pyrimethanil]
- binding by the antibodies (mAbs to SP and SP-enol): did not bind

SMILES: CCCN(CC)CC1COC2(CCC(C(C)(C)C)CC2)O1 (centres unmarked) [spiroxamine]
- binding by the antibodies (mAbs to SP and SP-enol): did not bind

SMILES: O=[N+]([O-])NC1=NCCN1Cc1ccc(Cl)nc1 [imidacloprid]
- binding by the antibodies (mAbs to SP and SP-enol): did not bind
